Reference: patent US20260345593A1, “ORAL FORMULATION OF N-PYRIDINYL ACETAMIDE DERIVATIVE FOR TREATING INTERSTITIAL LUNG DISEASE” (AstraZeneca AB, priority 2022, published 2026)

Legend:
healthy subjects [1] = test: Example 1 Part 1 (SAD): safety in healthy subjects; format: in vivo, human
Method: Part 1 comprises a Screening Period of a maximum of 6 weeks. This is followed by a Treatment Period during which subjects are resident at the Clinical Unit from 1 day before investigational medicinal product (IMP) administration (Day −1) until at least 72 hours after IMP administration (Day 4). Subjects receive a single oral dose of AZD5055 or placebo on Day 1. This is followed by a Follow-up Visit within 6±1 day after the IMP dose.
(§1) The study was conducted in healthy male and healthy female subjects of non-childbearing potential with suitable veins for cannulation or repeated venipuncture. […] Also, the subjects were aged 18 to 55 years inclusive for men and women in Part 1 and only men in Part 2. For female subjects in Part 2, the age range was 18 to 49 years inclusive.
(§2) In Part 1 of the study, 3 dose levels of AZD5055 were investigated in 3 cohorts. Each cohort included 8 subjects. Within each cohort, 6 subjects were randomized to receive AZD5055, and 2 subjects were randomized to receive placebo. In Part 2 of the study, 3 dose levels of AZD5055 were investigated in 3 cohorts. In each cohort, 9 subjects were randomized to receive AZD5055, and 3 subjects were randomized to receive placebo.
(§3) Safety endpoints included adverse events; vital signs (supine blood pressure, pulse, respiratory rate, and body temperature); 12-lead ECG, 12-lead dECG, telemetry, physical examinations, clinical laboratory assessments (hematology, clinical chemistry [including serum creatinine and creatine phosphokinase], urinalysis [including protein and albumin creatinine ratios], and cardiac biomarkers [including cardiac Troponin T (cTNT), cardiac Troponin I; (cTNI), and B type natriuretic peptide]), and peripheral oxygen saturation (SpO2).
(§4) All safety data (scheduled and unscheduled) were presented in the data listings. Continuous variables were summarized using descriptive statistics (n, mean, standard deviation, min, median, max) by treatment. Categorical variables were summarized in frequency tables (frequency and proportion) by treatment (both Parts 1 and 2). The analysis of the safety variables was based on the safety analysis set. Adverse events were summarized by System Organ Class (SOC) and Preferred Term (PT) using Medical Dictionary for Regulatory Activities vocabulary. Furthermore, listings of serious adverse events (SAEs) and adverse events leading to the discontinuation of IMP (DAEs) were made and the number of subjects who had any adverse events (AEs), SAEs, DAEs and AEs with severe intensity were summarized. Adverse events that occur before dosing were reported separately. Tabulations and listings of data for ECG, vital signs, AEs, and clinical laboratory tests, measurements were presented.

CYP3A4 = test: Example 1: 4-β-hydroxy-cholesterol levels in blood (CYP3A4 activity); format: in vivo, human; settings: healthy subjects
From the text: Change from baseline in 4-β-hydroxy-cholesterol levels in blood.
Plasma 4-β-hydroxy-cholesterol levels at baseline and the last day of dosing were statistically analyzed using a linear mixed model analysis of covariance with treatment as a fixed effect and the baseline concentration of 4-β-hydroxy-cholesterol as covariate.

[2] = tested on: mouse bleomycin in vivo pulmonary fibrosis; settings: mouse bleomycin in vivo study (Bunyard 2019); cited from earlier work
healthy subjects [3] = test: Example 1 Part 2 (MAD): safety in healthy subjects; format: in vivo, human
Method: Part 2 comprises a Screening Period of a maximum of 6 weeks. This is followed by a treatment period during which subjects are resident at the Clinical Unit from 1 day before IMP administration (Day −1) until at least 72 hours after the last dose given on Day 16 (Day 19). Subjects are dosed for a total of 15 days and receive a single once daily morning dose of AZD5055 or placebo on Day 1 and on Days 3 through Day 16, with no dosing on Day 2. This is followed up a Follow-up Visit within 6±1 day after the IMP dose, and an additional Follow-up Visit within 29±2 days after the last IMP dose.
For cohorts with QD dosing regimens, the Screening Period is followed by a Treatment Period during which subjects are resident at the Clinical Unit from 1 day before IMP administration (Day −1) until at least 72 hours after the last dose given on Day 16 (Day 19). Subjects are dosed for a total of 15 days, receiving a single QD morning dose of AZD5055 or placebo on Day 1 and on Days 3 through Day 16.
For cohorts with BID dosing regimens, the Screening Period is followed by a Treatment Period during which subjects are resident at the Clinical Unit from 1 day before IMP administration (Day −1) until at least 72 hours after the last dose given on Day 16 (Day 19).
Subjects are dosed for a total of 15 days, receiving a single morning dose of AZD5055 or placebo on Day 1 and Day 16, and repeated BID dosing on Day 3 through Day 15, 12 hours (±30 minutes) apart.
For both cohorts, the Treatment Period is followed by a Follow-up Visit within 6±1 day after the last IMP dose, and an additional Follow-up Visit within 29±2 days after the last IMP dose.
as §1, §2, §3, §4

[4] = excipient compatibility study; format: physicochemical
From the text: In some embodiments, the diluent is a sugar or sugar-containing, except mannitol. For example, the diluent may be lactose, dextrin, glucose, sucrose, sorbitol. In some embodiments, the diluent is microcrystalline cellulose.
In some embodiments, the lubricant/glidant is glyceryl behenate.

[5] = tested on: carbon tetrachloride-induced hepatic fibrosis in mice; settings: mice (Bunyard 2019); cited from earlier work
[6] = Part 1, across all AZD5055 doses
[7] = Part 2, across all AZD5055 doses

Q: With Cc1cc(-c2nccc3c2ccn3CC(=O)Nc2ccc(-c3cnccn3)cn2)ccn1 [AZD5055, 2-[4-(2-methyl-4-pyridyl)pyrrolo[3,2-c]pyridin-1-yl]-N-(5-pyrazin-2-yl-2-pyridyl)acetamide] as the compound, how does the “AEs possibly related to AZD5055” value (healthy subjects [1]; Part 1) read?
A: dizziness, ventricular tachycardia, wheezing, upper abdominal pain, vomiting, and nausea

Q: And the “clinical laboratory results, vital signs, physical examinations, ECGs” value (healthy subjects [1]; Part 1)?
A: No clinically relevant trends

Q: What about the “trends for AEs by SOC or PT” value (healthy subjects [1]; Part 1) of the same compound?
A: no notable trends

Q: And the “subjects with at least one AE” value (healthy subjects [1]; [6])?
A: 4 subjects

Q: What about the “subjects with at least one AE possibly related to AZD5055” value (healthy subjects [1]; [6]) of the same compound?
A: 3 subjects

Q: What about the “subjects with at least one AE possibly related to AZD5055, percent” value (healthy subjects [1]; [6]) of the same compound?
A: 16.7%

Q: And the “subjects with at least one AE, percent” value (healthy subjects [1]; [6])?
A: 22.2%

Q: What about the AE intensity (healthy subjects [1]; Part 1, all AEs) of the same compound?
A: Grade 1 (mild)

Q: And the AE outcome (healthy subjects [1]; Part 1, all AEs, by end of study)?
A: recovered/resolved by the end of the study

Q: What about the “SAEs, deaths, AEs leading to discontinuation or withdrawal” value (healthy subjects [1]; Part 1, all doses) of the same compound?
A: no SAEs, deaths, or AEs leading to discontinuation of AZD5055 or withdrawal from the study

Q: What about the tolerability (healthy subjects [1]; single oral suspension dose 7, 20 and 40 mg, n=6 per dose level) of the same compound?
A: well-tolerated

Q: What about the “effect on 4-β-hydroxy-cholesterol” value (CYP3A4; 14 days of once daily dosing) of the same compound?
A: no effect on 4-β-hydroxy-cholesterol

Q: And the “effect on CYP3A4 activity” value (CYP3A4; inferred from 4-β-hydroxy-cholesterol)?
A: no significant effect on CYP3A4 activity

Q: And the pulmonary fibrosis [2]?
A: reduced pulmonary fibrosis

Q: And the tolerability (healthy subjects [3]; 5, 15 and 20 mg QD, oral suspension)?
A: well tolerated at all administered doses

Q: What about the “AE intensity, majority of AEs” value (healthy subjects [3]; Part 2) of the same compound?
A: Grade 1 (mild)

Q: And the “AEs leading to discontinuation of AZD5055” value (healthy subjects [3]; Part 2)?
A: 3 AEs

Q: And the SAEs or deaths (healthy subjects [3]; Part 2)?
A: no SAEs or deaths

Q: What about the “clinical laboratory results, vital signs, physical examinations, ECGs” value (healthy subjects [3]; Part 2) of the same compound?
A: No clinically relevant trends

Q: What about the “trends for AEs by SOC or PT” value (healthy subjects [3]; Part 2) of the same compound?
A: no notable trends

Q: What about the “subjects with AE of ventricular tachycardia/non-sustained ventricular tachycardia, Grade 2, possibly related” value (healthy subjects [3]; Part 2, 5 mg dose) of the same compound?
A: Two

Q: And the “subjects with AE of coronavirus infection, Grade 1, not considered related” value (healthy subjects [3]; Part 2, 15 mg dose)?
A: One

Q: What about the “AEs possibly related to AZD5055, total” value (healthy subjects [3]; [7]) of the same compound?
A: 7 AEs

Q: What about the “subjects with an AE of Grade 2 (moderate) intensity” value (healthy subjects [3]; [7]) of the same compound?
A: 5 subjects

Q: What about the “subjects with at least one AE” value (healthy subjects [3]; [7]) of the same compound?
A: 21 subjects

Q: What about the AE outcome (healthy subjects [3]; Part 2, all AEs, by end of study) of the same compound?
A: recovered/resolved by the end of the study

Q: And the “possibly related AEs: breath odour” value (healthy subjects [3]; Part 2, number of AEs)?
A: 1

Q: What about the “possibly related AEs: dysgeusia” value (healthy subjects [3]; Part 2, number of AEs) of the same compound?
A: 1

Q: And the “possibly related AEs: headache” value (healthy subjects [3]; Part 2, number of AEs)?
A: 3

Q: And the “possibly related AEs: photophobia” value (healthy subjects [3]; Part 2, number of AEs)?
A: 1

Q: What about the “possibly related AEs: ventricular tachycardia” value (healthy subjects [3]; Part 2, number of AEs) of the same compound?
A: 2

Q: What about the “degradation products with silicon dioxide and magnesium stearate” value ([4]; glidant and lubricant respectively) of the same compound?
A: additional amounts of degradation products were identified

Q: What about the compatibility with mannitol ([4]; mannitol as diluent) of the same compound?
A: not compatible

Q: What about the “degradation products with mannitol” value ([4]; mannitol as diluent) of the same compound?
A: additional amounts of degradation products were identified

Q: And the “compatibility with silicon dioxide and magnesium stearate” value ([4]; silicon dioxide as glidant, magnesium stearate as lubricant)?
A: not compatible

Q: What about the “carbon tetrachloride-induced hepatic fibrosis” value [5] of the same compound?
A: reduces
